# Columns and labels:
# Assay type in all cases: in vivo
# Broadleaf Weeds [1] = assay: Post-emergent application in combination with other herbicides, percent control of broadleaf weeds; conditions: 31.25 g ai/ha
# Experimental: All test compounds were dissolved in acetone and applied to the test units in a volume of 187 l/ha. Test materials were applied at rates ranging from 125 g ai/ha to 1000 g ai/ha using a track sprayer equipped with a TJ8001E even flow flat fan spray nozzle. Plants were arranged on a shelf so that the top of the canopy (post-emerge) or top of the soil surface (pre-emerge) was 40-45 cm below the nozzle. Pressurized air was used to force the test solution through the nozzle as it was mechanically advanced (via electrically driven chain drive) over the top of all test plants/pots. This application simulates a typical commercial field herbicide application. […] For post-emerge tests, seeds were planted 8-21 days prior to the test to allow emergence and good foliage development prior to application of the test substances. At the time of the post-emerge application, plants of all species were usually at the 2-3 leaf stage of development. Post-emerge test units were always bottom-watered. At 14 days after application of the test materials, phytotoxicity ratings were recorded. A rating scale of 0-100 was used as previously described in Research Methods in Weed Science, 2nd edition, B. Truelove, Ed., Southern Weed Science Society, Auburn University, Auburn, Ala., 1977. Briefly, “0” corresponds to no damage and “100” corresponds to complete death of all plants in the test unit. This scale was used both to determine efficacy against weed species and damage to crop species. Herbicide activity data for various compounds of this invention, which are shown by compound number in Tables 1-9, are shown in Tables 13 and 14. […] (Note: Weed species abbreviations are from the Composite List of Weeds published by the Weed Science Society of America, 1989.) The following examples illustrate the utility of combinations of compounds of this invention and existing herbicides. The methods used are identical to those for the application of single compounds except the commercial formulations of existing herbicides were added to the spray mixture in the appropriate amounts before spraying. Combination Example 3. Post-emergent Application of Compound 9-1 with Nicosulfuron Combination Example 4. Postemergent Application of Compound 9-1 with Pyridate
# Broadleaf Weeds [2] = assay: Pre-emergent application in combination with other herbicides, percent control of broadleaf weeds; conditions: 62.5 g ai/ha
# Experimental: (§1) All plants were grown in 10 cm square plastic pots which were filled with a sandy loam soil mix. For preemerge tests, seeds were planted one day prior to application of the test compounds. Immediately after application, test units of the pre-emerge applications were watered at the soil surface to incorporate the test materials. Subsequently, these test units were bottom-watered.
# (§2) All test compounds were dissolved in acetone and applied to the test units in a volume of 187 l/ha. […] Plants were arranged on a shelf so that the top of the canopy (post-emerge) or top of the soil surface (pre-emerge) was 40-45 cm below the nozzle. Pressurized air was used to force the test solution through the nozzle as it was mechanically advanced (via electrically driven chain drive) over the top of all test plants/pots. This application simulates a typical commercial field herbicide application.
# (§3) At 14 days after application of the test materials, phytotoxicity ratings were recorded. A rating scale of 0-100 was used as previously described in Research Methods in Weed Science, 2nd edition, B. Truelove, Ed., Southern Weed Science Society, Auburn University, Auburn, Ala., 1977. Briefly, “0” corresponds to no damage and “100” corresponds to complete death of all plants in the test unit. This scale was used both to determine efficacy against weed species and damage to crop species. Herbicide activity data for various compounds of this invention, which are shown by compound number in Tables 1-9, are shown in Tables 13 and 14.
# (§4) (Note: Weed species abbreviations are from the Composite List of Weeds published by the Weed Science Society of America, 1989.)
# The following examples illustrate the utility of combinations of compounds of this invention and existing herbicides. The methods used are identical to those for the application of single compounds except the commercial formulations of existing herbicides were added to the spray mixture in the appropriate amounts before spraying. […]
# (§5) Combination Example 2. Pre-emergent Application of Compound 9-1 with Dimethenamid
# Grass Weeds = assay: Pre-emergent application in combination with other herbicides, percent control of grass weeds; conditions: 62.5 g ai/ha
# Experimental: as §1, §2, §3, §4
# The following examples illustrate the utility of combinations of compounds of this invention and existing herbicides. The methods used are identical to those for the application of single compounds except the commercial formulations of existing herbicides were added to the spray mixture in the appropriate amounts before spraying.
# Combination Example 1. Pre-emergent Application of Compound 9-1 with Metolachlor
# as §5
compound,measurement,setting,value
"Nn1c(C(F)(F)F)cc(=O)n(-c2cc(Oc3ncccc3[N+](=O)[O-])c(Cl)cc2F)c1=O [Compound 9-1, 1-amino-3-[4-chloro-2-fluoro-5-(3-nitro-2-pyridyloxy)phenyl]-6-trifluoromethyl-1,2,3,4-tetrahydropyrimidine-2,4-dione]",Percent Control of Broadleaf Weeds ABUTH,Broadleaf Weeds [1],60%
same,Percent Control of Broadleaf Weeds ABUTH,Broadleaf Weeds [1]; Combination Example 4,60%
same,Percent Control of Broadleaf Weeds AMARE,Broadleaf Weeds [1],60%
same,Percent Control of Broadleaf Weeds AMARE,Broadleaf Weeds [1]; Combination Example 4,60%
same,Percent Control of Broadleaf Weeds AMBEL,Broadleaf Weeds [1],40%
same,Percent Control of Broadleaf Weeds AMBEL,Broadleaf Weeds [1]; Combination Example 4,40%
same,Percent Control of Broadleaf Weeds CASOB,Broadleaf Weeds [1],0%
same,Percent Control of Broadleaf Weeds CASOB,Broadleaf Weeds [1]; Combination Example 4,0%
same,Percent Control of Broadleaf Weeds CHEAL,Broadleaf Weeds [1],90%
same,Percent Control of Broadleaf Weeds CHEAL,Broadleaf Weeds [1]; Combination Example 4,90%
same,Percent Control of Broadleaf Weeds IPOHE,Broadleaf Weeds [1],80%
same,Percent Control of Broadleaf Weeds IPOHE,Broadleaf Weeds [1]; Combination Example 4,80%
same,Percent Control of Broadleaf Weeds ABUTH,Broadleaf Weeds [2],95%
same,Percent Control of Broadleaf Weeds ABUTH,Broadleaf Weeds [2]; Combination Example 2,95%
same,Percent Control of Broadleaf Weeds AMARE,Broadleaf Weeds [2],100%
same,Percent Control of Broadleaf Weeds AMARE,Broadleaf Weeds [2]; Combination Example 2,100%
same,Percent Control of Broadleaf Weeds AMBEL,Broadleaf Weeds [2],40%
same,Percent Control of Broadleaf Weeds AMBEL,Broadleaf Weeds [2]; Combination Example 2,40%
same,Percent Control of Broadleaf Weeds CASOB,Broadleaf Weeds [2],10%
same,Percent Control of Broadleaf Weeds CASOB,Broadleaf Weeds [2]; Combination Example 2,10%
same,Percent Control of Broadleaf Weeds CHEAL,Broadleaf Weeds [2],100%
same,Percent Control of Broadleaf Weeds CHEAL,Broadleaf Weeds [2]; Combination Example 2,100%
same,Percent Control of Broadleaf Weeds IPOHE,Broadleaf Weeds [2],50%
same,Percent Control of Broadleaf Weeds IPOHE,Broadleaf Weeds [2]; Combination Example 2,50%
same,Percent Control of Grass Weeds DIGSA,Grass Weeds,20%
same,Percent Control of Grass Weeds DIGSA,Grass Weeds; Combination Example 2,20%
same,Percent Control of Grass Weeds ECHCG,Grass Weeds,0%
same,Percent Control of Grass Weeds ECHCG,Grass Weeds; Combination Example 2,0%
same,Percent Control of Grass Weeds SETVI,Grass Weeds,90%
same,Percent Control of Grass Weeds SETVI,Grass Weeds; Combination Example 2,90%
same,Percent Control of Grass Weeds SORHA,Grass Weeds,0%
same,Percent Control of Grass Weeds SORHA,Grass Weeds; Combination Example 2,0%
